# From patent US20250115739A1, “COMPOUND, RUBBER BLEND CONTAINING THE COMPOUND, VEHICLE TIRE COMPRISING THE RUBBER BLEND IN AT LEAST ONE COMPONENT, PROCESS FOR PREPARING THE COMPOUND, AND USE OF THE COMPOUND AS AN ANTI-AGING AGENT AND/OR ANTIOXIDANT” (Continental Reifen Deutschland GmbH, priority 2022, published 2025)
# Test: Measurement of oxidation induction time (OIT) by DSC
# Details: for Time [min] at 180° C. (time to oxidation, oxidation induction time): isothermal 180° C., O2 atmosphere 50 ml/min, with polyisoprene LIR-50, DSC peak
# Protocol: The compound of formula III) was investigated under laboratory conditions for its potential protective effect as an aging stabilizer by measurement of the oxidation induction time.
# To this end the compounds of formula III) and 6-PPD in each case together with a polymer (liquid synthetic polyisoprene (IR), LIR-50, Kuraray, weight average molecular weight distribution Mw=54 000 g/mol, glass transition temperature Tg=−63° C.) were heated at constant temperature (180° C.) until onset of oxidation (start temperature 35° C., heating to 170° C. at a heating rate of 20 K/min (kelvin per minute), heating to 180° C. at a heating rate of 1 K/min; purge gas: nitrogen (N2), volume flow 50 ml/min).
# The specimen was kept under isothermal conditions at 180° C. under an N2 atmosphere for 5 minutes and the atmosphere was then switched to an 02 atmosphere (volume flow 50 ml/min).
# Oxidation was determined via a peak using DSC (differential scanning calorimetry).
# The time in minutes to oxidation was measured.
Structure (SMILES),"Time [min] at 180° C. (time to oxidation, oxidation induction time)",protective effect as aging stabilizer (from OIT) (taking into account measurement accuracy of 10 minutes)
"CC1CCC2C(C1)Nc1ccc(Nc3ccccc3)cc1C2(C)C (stereo not drawn) [Formula III), 6,9,9-trimethyl-N-phenyl-5,6,7,8,8a,9,10,10a-octahydroacridin-2-amine]",93 ± 10 min,protective effect comparable to 6PPD
"CC(C)CC(C)Nc1ccc(Nc2ccccc2)cc1 (stereo not drawn) [Substance 6PPD, N-(1,3-dimethylbutyl)-N′-phenyl-p-phenylenediamine, reference compound]",116 ± 10 min,
